Experimental data published in ChEMBL document CHEMBL1201862, “PubChem BioAssay data set” (2004).
Activity calls are given as the source filed them.

Legend:
Assay type in all cases: functional
[1] = biological target: Phosphorylase b kinase gamma catalytic chain, liver/testis isoform (Homo sapiens, UniProt P15735);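 further: PHKG2 measured as one member of a kinome-wide kinase panel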
[2] = biological target: Serine/threonine-protein kinase PLK3 (Homo sapiens, UniProt Q9H4B4)
[3] = biological target: RAC-gamma serine/threonine-protein kinase (Homo sapiens, UniProt Q9Y243)
[4] = biological target: Protein kinase C delta type (Homo sapiens, UniProt Q05655)
[5] = biological target: Serine/threonine-protein kinase PLK4 (Homo sapiens, UniProt O00444);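 further: PLK4 measured as one member of a kinome-wide kinase profiling panel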
[6] = biological target: Testis-specific serine/threonine-protein kinase 2 (Homo sapiens, UniProt Q96PF2);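 further: part of the Navigating the Kinome panel, target entry STK22B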
[7] = biological target: Serine/threonine-protein kinase 17A (Homo sapiens, UniProt Q9UEE5)
[8] = biological target: Serine/threonine-protein kinase Chk2 (Homo sapiens, UniProt O96017);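 further: CHEK2 entry within a kinome-wide screening panel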
[9] = biological target: Casein kinase I isoform gamma-1 (Homo sapiens, UniProt Q9HCP0);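 further: measured as the CSNK1G1 member of a kinome profiling panel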
Chain of Casein kinase I isoform gamma-1 (Q9HCP0 whole entry, canonical isoform): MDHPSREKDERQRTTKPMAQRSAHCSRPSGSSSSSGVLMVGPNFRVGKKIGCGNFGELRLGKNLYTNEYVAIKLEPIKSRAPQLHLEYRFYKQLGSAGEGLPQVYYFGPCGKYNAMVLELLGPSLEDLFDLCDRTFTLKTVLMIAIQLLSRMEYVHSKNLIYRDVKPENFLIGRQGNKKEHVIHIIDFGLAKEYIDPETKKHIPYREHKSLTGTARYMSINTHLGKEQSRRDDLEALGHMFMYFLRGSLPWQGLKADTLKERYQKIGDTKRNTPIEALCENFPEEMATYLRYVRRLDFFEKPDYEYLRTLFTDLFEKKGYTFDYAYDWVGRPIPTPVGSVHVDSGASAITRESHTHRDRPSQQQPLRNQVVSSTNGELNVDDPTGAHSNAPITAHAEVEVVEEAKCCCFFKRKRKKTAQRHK

[10] = biological target: Serine/threonine-protein kinase N2 (Homo sapiens, UniProt Q16513)
Chain of Serine/threonine-protein kinase N2 (Q16513 whole entry): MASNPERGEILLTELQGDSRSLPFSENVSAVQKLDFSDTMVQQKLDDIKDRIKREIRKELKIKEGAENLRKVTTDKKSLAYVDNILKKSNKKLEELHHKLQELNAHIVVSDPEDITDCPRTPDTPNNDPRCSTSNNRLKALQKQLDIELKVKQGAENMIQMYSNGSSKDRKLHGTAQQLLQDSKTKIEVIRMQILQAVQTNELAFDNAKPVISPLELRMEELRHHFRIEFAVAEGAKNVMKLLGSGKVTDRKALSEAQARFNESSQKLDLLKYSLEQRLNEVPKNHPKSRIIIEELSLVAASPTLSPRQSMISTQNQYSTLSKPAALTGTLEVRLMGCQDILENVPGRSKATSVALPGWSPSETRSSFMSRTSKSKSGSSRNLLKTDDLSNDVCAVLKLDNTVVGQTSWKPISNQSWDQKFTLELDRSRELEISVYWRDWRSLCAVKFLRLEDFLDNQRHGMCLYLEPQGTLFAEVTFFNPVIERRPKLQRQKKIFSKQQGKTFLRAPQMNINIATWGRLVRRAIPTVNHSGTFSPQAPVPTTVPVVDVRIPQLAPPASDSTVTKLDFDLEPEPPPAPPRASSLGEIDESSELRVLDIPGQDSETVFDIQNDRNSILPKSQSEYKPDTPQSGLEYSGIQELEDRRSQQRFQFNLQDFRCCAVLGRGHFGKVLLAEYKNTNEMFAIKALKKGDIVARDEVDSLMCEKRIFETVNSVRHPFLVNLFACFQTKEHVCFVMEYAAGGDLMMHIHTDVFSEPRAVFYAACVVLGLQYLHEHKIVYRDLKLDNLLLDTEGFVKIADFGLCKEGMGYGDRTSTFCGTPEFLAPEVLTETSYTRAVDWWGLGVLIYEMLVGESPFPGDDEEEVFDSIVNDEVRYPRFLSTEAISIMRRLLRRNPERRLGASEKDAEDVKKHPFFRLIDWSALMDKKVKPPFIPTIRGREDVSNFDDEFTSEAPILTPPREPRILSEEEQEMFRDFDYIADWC

[11] = biological target: Proto-oncogene tyrosine-protein kinase ROS (Homo sapiens, UniProt P08922);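 further: ROS1 tested as one member of a kinome-wide kinase panel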
[12] = biological target: Tyrosine-protein kinase Blk (Homo sapiens, UniProt P51451);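 further: obtained as one member of a kinome-wide kinase assay panel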
[13] = biological target: Mitogen-activated protein kinase 13 (Homo sapiens, UniProt O15264)
Chain of Mitogen-activated protein kinase 13 (O15264 whole entry): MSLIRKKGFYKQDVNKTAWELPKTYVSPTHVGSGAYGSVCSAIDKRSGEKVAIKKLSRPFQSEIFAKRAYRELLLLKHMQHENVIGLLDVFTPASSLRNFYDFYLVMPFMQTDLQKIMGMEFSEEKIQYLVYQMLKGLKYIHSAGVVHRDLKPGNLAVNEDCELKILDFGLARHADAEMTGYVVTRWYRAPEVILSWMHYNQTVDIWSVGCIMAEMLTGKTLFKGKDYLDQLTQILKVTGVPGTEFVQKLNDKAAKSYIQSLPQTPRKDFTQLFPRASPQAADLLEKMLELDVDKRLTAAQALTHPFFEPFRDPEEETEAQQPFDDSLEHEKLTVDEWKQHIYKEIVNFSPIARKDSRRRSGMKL

[14] = biological target: Serine/threonine-protein kinase pim-3 (Homo sapiens, UniProt Q86V86);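 further: value obtained as one member of a broad kinase panel profiling effort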
[15] = biological target: MAP kinase-activated protein kinase 3 (Homo sapiens, UniProt Q16644);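 further: value comes from a kinome-wide profiling panel in which MAPKAPK3 is one of the panel members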
[16] = biological target: Casein kinase I isoform delta (Homo sapiens, UniProt P48730);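 further: measured as one member (CSNK1D) of a kinome panel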
Chain of Casein kinase I isoform delta (P48730 whole entry, canonical isoform): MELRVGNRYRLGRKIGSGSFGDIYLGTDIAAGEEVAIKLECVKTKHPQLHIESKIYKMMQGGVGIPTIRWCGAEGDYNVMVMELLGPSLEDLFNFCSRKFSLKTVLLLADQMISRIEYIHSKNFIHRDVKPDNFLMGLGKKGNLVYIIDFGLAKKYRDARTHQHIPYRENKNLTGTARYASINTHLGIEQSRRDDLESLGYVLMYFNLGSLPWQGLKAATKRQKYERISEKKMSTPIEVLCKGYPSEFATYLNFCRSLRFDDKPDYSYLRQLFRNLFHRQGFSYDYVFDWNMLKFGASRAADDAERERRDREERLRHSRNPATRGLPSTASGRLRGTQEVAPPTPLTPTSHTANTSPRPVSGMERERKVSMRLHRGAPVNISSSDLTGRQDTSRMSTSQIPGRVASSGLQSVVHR

[17] = biological target: MAP kinase-interacting serine/threonine-protein kinase 2 (Homo sapiens, UniProt Q9HBH9)
Ephrin type-A receptor 2 = Ephrin type-A receptor 2 (Homo sapiens, UniProt P29317);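 further: EPHA2 tested as one member of a kinome-wide kinase panel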
[18] = biological target: Mitogen-activated protein kinase 1 (Homo sapiens, UniProt P28482)
Chain of Mitogen-activated protein kinase 1 (P28482 whole entry): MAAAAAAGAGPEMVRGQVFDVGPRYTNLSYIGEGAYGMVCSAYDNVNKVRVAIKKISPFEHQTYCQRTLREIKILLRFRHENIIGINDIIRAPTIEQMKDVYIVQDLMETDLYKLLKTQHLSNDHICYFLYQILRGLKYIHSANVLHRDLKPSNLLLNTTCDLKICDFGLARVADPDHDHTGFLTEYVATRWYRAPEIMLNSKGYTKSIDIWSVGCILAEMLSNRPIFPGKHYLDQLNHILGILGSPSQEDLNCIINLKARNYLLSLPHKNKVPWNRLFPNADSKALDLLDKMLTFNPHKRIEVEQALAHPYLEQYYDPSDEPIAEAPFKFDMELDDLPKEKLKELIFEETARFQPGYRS

[19] = biological target: Dual specificity tyrosine-phosphorylation-regulated kinase 4 (Homo sapiens, UniProt Q9NR20)
[20] = biological target: Mitogen-activated protein kinase kinase kinase kinase 5 (Homo sapiens, UniProt Q9Y4K4);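 further: measured as one member of a kinome-spanning kinase panel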
[21] = biological target: Tyrosine-protein kinase Fer (Homo sapiens, UniProt P16591);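 further: FER tested as one member of a kinome panel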
Chain of Tyrosine-protein kinase Fer (P16591 whole entry): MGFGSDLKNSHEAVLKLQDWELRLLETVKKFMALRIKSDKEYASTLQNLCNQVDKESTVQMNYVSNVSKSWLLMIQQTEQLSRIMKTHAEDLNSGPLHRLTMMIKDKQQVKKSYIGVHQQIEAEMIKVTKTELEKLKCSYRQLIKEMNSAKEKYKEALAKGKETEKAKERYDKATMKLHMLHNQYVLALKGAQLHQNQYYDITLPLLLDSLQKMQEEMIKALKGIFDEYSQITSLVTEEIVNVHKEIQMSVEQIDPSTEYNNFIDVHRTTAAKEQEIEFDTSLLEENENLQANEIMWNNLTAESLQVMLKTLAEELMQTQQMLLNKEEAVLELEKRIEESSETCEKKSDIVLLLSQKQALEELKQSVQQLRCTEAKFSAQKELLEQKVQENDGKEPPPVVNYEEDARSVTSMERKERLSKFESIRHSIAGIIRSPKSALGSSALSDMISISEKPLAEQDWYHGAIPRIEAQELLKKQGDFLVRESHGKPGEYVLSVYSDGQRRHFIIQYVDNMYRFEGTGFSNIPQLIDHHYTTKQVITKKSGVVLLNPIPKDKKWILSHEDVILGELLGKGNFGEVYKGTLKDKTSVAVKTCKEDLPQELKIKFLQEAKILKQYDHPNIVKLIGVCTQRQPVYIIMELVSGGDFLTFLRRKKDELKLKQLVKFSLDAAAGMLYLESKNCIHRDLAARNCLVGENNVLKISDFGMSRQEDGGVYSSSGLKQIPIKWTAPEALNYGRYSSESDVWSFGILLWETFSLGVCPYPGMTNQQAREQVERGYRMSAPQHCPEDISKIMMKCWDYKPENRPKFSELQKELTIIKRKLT

[22] = biological target: Calcium/calmodulin-dependent protein kinase type 1 (Homo sapiens, UniProt Q14012)
[23] = biological target: Homeodomain-interacting protein kinase 4 (Homo sapiens, UniProt Q8NE63)
Chain of Homeodomain-interacting protein kinase 4 (Q8NE63 whole entry): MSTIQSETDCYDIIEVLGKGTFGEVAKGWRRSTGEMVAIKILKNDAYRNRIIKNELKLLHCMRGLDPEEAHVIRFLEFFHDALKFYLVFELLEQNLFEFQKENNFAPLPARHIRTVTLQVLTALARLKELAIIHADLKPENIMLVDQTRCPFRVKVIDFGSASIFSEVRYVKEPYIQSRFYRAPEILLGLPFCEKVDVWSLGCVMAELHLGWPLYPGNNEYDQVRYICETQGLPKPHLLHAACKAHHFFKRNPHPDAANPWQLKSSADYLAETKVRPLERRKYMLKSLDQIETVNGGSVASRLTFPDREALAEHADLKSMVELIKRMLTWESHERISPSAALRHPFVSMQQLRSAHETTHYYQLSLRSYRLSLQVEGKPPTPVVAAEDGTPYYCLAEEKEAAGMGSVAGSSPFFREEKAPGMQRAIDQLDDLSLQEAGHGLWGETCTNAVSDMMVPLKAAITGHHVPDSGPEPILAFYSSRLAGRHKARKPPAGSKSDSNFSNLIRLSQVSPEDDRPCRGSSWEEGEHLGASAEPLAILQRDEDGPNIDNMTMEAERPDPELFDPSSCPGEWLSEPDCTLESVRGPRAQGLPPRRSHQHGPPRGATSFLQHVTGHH

[24] = biological target: Serine/threonine-protein kinase Nek2 (Homo sapiens, UniProt P51955)
[25] = biological target: Fibroblast growth factor receptor 3 (Homo sapiens, UniProt P22607)
[26] = biological target: Receptor tyrosine-protein kinase erbB-4 (Homo sapiens, UniProt Q15303);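 further: ERBB4 member of a kinome-wide kinase profiling panel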
[27] = biological target: Mitogen-activated protein kinase 12 (Homo sapiens, UniProt P53778);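 further: measured as one member of a kinome-wide kinase profiling panel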
Chain of Mitogen-activated protein kinase 12 (P53778 whole entry): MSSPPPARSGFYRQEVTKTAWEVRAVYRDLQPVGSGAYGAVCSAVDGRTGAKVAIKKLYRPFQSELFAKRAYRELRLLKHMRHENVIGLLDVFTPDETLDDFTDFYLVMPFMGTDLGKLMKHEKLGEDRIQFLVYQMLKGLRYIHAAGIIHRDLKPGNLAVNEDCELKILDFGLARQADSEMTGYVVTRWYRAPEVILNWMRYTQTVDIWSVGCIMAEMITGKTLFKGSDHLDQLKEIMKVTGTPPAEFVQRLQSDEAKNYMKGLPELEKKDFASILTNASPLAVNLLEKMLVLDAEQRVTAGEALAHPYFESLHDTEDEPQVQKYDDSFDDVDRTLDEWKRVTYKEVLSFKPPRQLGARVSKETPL

[28] = biological target: Serine/threonine-protein kinase 3 (Homo sapiens, UniProt Q13188);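 further: measured as one member of a kinome-wide kinase panel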
[29] = biological target: Tyrosine-protein kinase Lck (Homo sapiens, UniProt P06239);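 further: lck was assayed as one member of a kinase panel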
Aurora kinase A = biological target: T1, Aurora kinase A (Homo sapiens, UniProt O14965);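 further: value from the Navigating the Kinome kinase panel profiling, panel entry STK6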
T1 sequence (O14965 whole entry): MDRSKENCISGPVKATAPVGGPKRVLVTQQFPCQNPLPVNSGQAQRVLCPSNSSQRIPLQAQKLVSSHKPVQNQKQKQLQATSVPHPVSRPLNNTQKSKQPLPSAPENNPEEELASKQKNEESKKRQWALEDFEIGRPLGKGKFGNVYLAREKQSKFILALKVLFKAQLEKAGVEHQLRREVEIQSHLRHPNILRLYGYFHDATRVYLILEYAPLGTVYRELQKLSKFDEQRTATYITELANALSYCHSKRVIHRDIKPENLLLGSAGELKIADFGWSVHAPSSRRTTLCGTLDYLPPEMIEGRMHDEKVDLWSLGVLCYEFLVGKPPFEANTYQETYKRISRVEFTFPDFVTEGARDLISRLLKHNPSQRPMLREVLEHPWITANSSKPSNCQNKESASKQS

Chain of Phosphorylase b kinase gamma catalytic chain, liver/testis isoform (P15735 whole entry, canonical isoform): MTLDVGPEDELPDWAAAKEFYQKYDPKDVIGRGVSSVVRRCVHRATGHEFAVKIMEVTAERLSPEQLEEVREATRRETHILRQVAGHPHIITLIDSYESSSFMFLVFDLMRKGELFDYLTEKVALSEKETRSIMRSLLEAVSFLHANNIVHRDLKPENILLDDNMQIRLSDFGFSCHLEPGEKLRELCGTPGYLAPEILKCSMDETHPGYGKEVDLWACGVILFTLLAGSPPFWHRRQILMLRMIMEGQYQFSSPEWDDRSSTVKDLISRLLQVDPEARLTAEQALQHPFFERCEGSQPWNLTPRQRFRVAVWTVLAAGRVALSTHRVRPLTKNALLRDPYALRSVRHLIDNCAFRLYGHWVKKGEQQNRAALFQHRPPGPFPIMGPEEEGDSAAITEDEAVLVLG

OC1CCC(Nc2nc(Cl)cc(-c3c[nH]c4ncccc34)n2)CC1 (centres undefined)
Ki [1]: 200 nM (active) | pKi [1]: 6.7 | Ki [2]: > 7940 nM (inactive) | Ki [3]: > 10000 nM (inactive) | Ki [4]: 63.1 nM (active) | pKi [4]: 7.2 | Ki [5]: > 3980 nM (inactive) | Ki [6]: > 1580 nM (inactive) | Ki [7]: 39.8 nM (active) | pKi [7]: 7.4 | Ki [8]: > 1580 nM (inactive) | Ki [9]: 316 nM (active) | pKi [9]: 6.5 | Ki [10]: 7.94 nM (active) | pKi [10]: 8.1 | Ki [11]: 158 nM (active) | pKi [11]: 6.8 | Ki [12]: > 1580 nM (inactive) | Ki [13]: 126 nM (active) | pKi [13]: 6.9 | Ki [14]: 3160 nM (active) | pKi [14]: 5.5 | Ki [15]: > 10000 nM (inactive) | Ki [16]: 20 nM (active) | pKi [16]: 7.7 | Ki [17]: 39.8 nM (active) | pKi [17]: 7.4 | Ki (Ephrin type-A receptor 2): > 3160 nM (inactive) | Ki [18]: 50.1 nM (active) | pKi [18]: 7.3 | Ki [19]: 3160 nM (active) | pKi [19]: 5.5 | Ki [20]: 79.4 nM (active) | pKi [20]: 7.1 | Ki [21]: 200 nM (active) | pKi [21]: 6.7 | Ki [22]: > 794 nM (inactive) | Ki [23]: 398 nM (active) | pKi [23]: 6.4 | Ki [24]: 6310 nM (active) | pKi [24]: 5.2 | Ki [25]: > 2000 nM (inactive) | Ki [26]: > 3980 nM (inactive) | Ki [27]: 158 nM (active) | pKi [27]: 6.8 | Ki [28]: 50.1 nM (active) | pKi [28]: 7.3

COc1cccc(CNC(=O)c2cnc(-c3ccncc3)nc2)c1
Ki [29]: > 6310 nM (inactive) | Ki (Aurora kinase A): > 1580 nM (inactive)
